Reference: article PMC10468942, “A Fluorescent Probe as a Lead Compound for a Selective α-Synuclein PET Tracer: Development of a Library of 2-Styrylbenzothiazoles and Biological Evaluation of [^18F]PFSB and [^18F]MFSB” (ACS Omega, 2023)
Several values for one entry are separate records, joined by “and”; a condition that tells them apart may be missing. Identical values can stand only once. Like-named read-outs stand apart in the source and are kept apart here.

Experiments:
[1] = target: T1, αSYN fibrils (Homo sapiens, UniProt P37840); assay: [^3H]PiB competition binding assay on αSYN fibrils
T1 construct: cloning of the DNA construct encoding full-length αSYN into the pET-22b vector; made in house; host or cells: Escherichia coli BL21
Experimental: Following the cloning of the DNA construct encoding full-length αSYN into the pET-22b vector and its transformation into BL21 cells, the expression of human αSYN from a prokaryotic host was induced overnight in Escherichia coli at 20 °C with 0.5 mM IPTG. The cells were harvested by centrifugation, resuspended in 20 mM Tris-HCl pH 7.6, 25 mM NaCl and 1× complete protease inhibitor (Roche, Basel, Switzerland), and lysed by sonication. […] Anion exchange chromatography (HiTrap Q, GE Healthcare, Chicago, Illinois) was used to trap the produced αSYN, which was eluted with NaCl 0.1 M over 20 column volumes. Fractions containing αSYN were concentrated and further purified through a Superdex 75 SEC column equilibrated with PBS. […] A 4 mg/mL solution of αSYN in 20 mM K3PO4 pH 9.1 was placed in an orbital shaker at 37 °C, 1000 rpm for 5 days to prepare P91s. The assemblies were either sonicated with cycles of 20 s on and 10 s off at 50% amplitude (Q800R3, Qsonica) for a total of 10 min or directly aliquoted in volumes of 10 μL each stored at −80 °C until use. […] The final products were aliquoted, frozen on dry ice, and stored at −80 °C until use.
Concentrations of αSYN and Aβ1-42 fibrils were as described above.
Plates were incubated on a shaker (MaxQ 6000, Thermo Fisher Scientific, Inc., Marietta, OH) at 50 rpm for 2 h at 37 °C, covered by removable sealing tapes (PerkinElmer, Waltham, MA). Vacuum filtration and read-out were performed as previously reported.[17] […] Data points were fitted using nonlinear regression analysis in GraphPad Prism (GraphPad Software, Inc., Version 8.4.0, La Jolla).

[2] = target: αSYN fibrils; set-up: method as in PMID 33819025; conditions: fluorescence titration; cited from earlier work
[3] = system: αSYN pathology in human brain slices (MSA, PD, AD, control); assay: In vitro autoradiography on human brain slices; assay type: binding; conditions: 10 nM tracer; for AD/frontal cortex SB ratio: AD sample vs frontal cortex control
Experimental: Post-mortem human brain slices (10 μm thickness) were obtained from the subject cases and were analyzed by the Neurobiobank München (NBM, Munich, Germany), where tissues were collected on the basis of written informed consent according to the guidelines of the ethics committee of the Ludwig Maximilians University of Munich, Germany (# 345-13). The use of brain tissue samples in this study was approved by the ethics committee of the Faculty of Medicine at the University of Tuebingen (Ethics approval number: 813/2018BO2). Table S4 (Supporting Information) summarizes the information of the subjects from which samples were obtained and used in the experiment.
For autoradiography, frozen brain slices were thawed for 1 h before preincubation in bovine serum albumin (BSA) buffer for 25 min at room temperature. To determine total binding (TB), brain slices were incubated with the tracer (10 nM [^18F]PFSB, 10 nM [^18F]MFSB). Incubation of consecutive slices with the corresponding nonradioactive compounds (10 μM PFSB, 10 μM MFSB) was performed to determine nonspecific binding (NSB). The nonradioactive compounds were prepared by dissolving in DMSO to 10 mM, which yielded a DMSO concentration of ≤0.1% in the final solution. Incubation was carried out for 1 hour at room temperature with subsequent washing in cold BSA buffer (3 × 10 min) followed by three dippings in cold deionized water. After drying under an IR lamp, brain slices were exposed to a storage phosphor screen (Molecular Dynamics, Caesarea, Israel) for 18 h, which was then scanned in a phosphor imager (STORM 840, Molecular Dynamics, Sunnyvale, CA).
Quantitative data analysis was performed by drawing four regions of interest (ROIs) in relevant areas of the slice and one ROI next to it for background subtraction (Figures S7 and S8; ImageJ 1.8.0_172, National Institute of Health, Bethesda, MD).[28] Specific binding (SB) is obtained by subtracting NSB from TB. The SB disease/SB control ratio was calculated by dividing by the SB in diseased tissues with the respective SB in control tissues.

[4] = In vivo dynamic PET/MR imaging in healthy wild-type mice; set-up: species or system C57BL/6J mice
Experimental: The animal experiments were performed in compliance with the European directives on the protection and use of laboratory animals (Council Directive 2010/63/UE) and the German animal welfare act with approval from the local authorities (Regierungspräsidium Tuebingen, R3/19G). Healthy wild-type female C57BL/6J mice (20.3 ± 0.9 g; 9 weeks old) purchased from Charles River Laboratories (Sulzbach, Germany) were maintained in our vivarium on a 12:12 hour light–dark cycle, and were kept at a temperature of 22 °C with 40–60% humidity and free access to a standard diet and tap water.
The mice (n = 3) were anesthetized with 1.5% isoflurane evaporated in 100% oxygen at a flow rate of 0.8 L/min. A body temperature of 37 °C was maintained using a feedback temperature control unit. PET imaging studies were performed on Inveon dedicated microPET system (Inveon D-PET, Siemens, Knoxville, TN). Five seconds after the start of PET acquisition, the mice were injected intravenously with 9.9 ± 0.6 MBq of [^18F]MFSB (Am = 46.2 ± 2.5 GBq/μmol at the time of injection). The 1 h dynamic acquisitions were divided into 39 time frames (12 × 5 s, 6 × 10 s, 6 × 30 s, 5 × 60 s, and 10 × 300 s). A 13-min transmission measurement with a cobalt-57 point source was performed for attenuation correction. Subsequently, an anatomical MR scan with a 7 Tesla MR scanner (ClinScan, Bruker BioSpin MRI GmbH, Ettlingen, Germany) using a rat whole-body volume coil and the Paravision software (v6.0.1, Bruker, Ettlingen, Germany) using a T2-weighted Turbo-RARE MRI sequence.
The PET image was reconstructed via the OSEM3D/SP-MAP reconstruction algorithm and coregistered to the whole-body MRI scan. Volumes of interest (VOIs) were hand-drawn for the relevant organs based on the MR anatomy in PMOD (PMOD Technologies, Faellanden, Switzerland, Version 4.2) and VOIs at different regions in the mouse brain were extracted using the atlas provided by PMOD to calculate the respective time–activity curves (TACs). Standardized uptake values (SUVs) were calculated as a ratio of the detected activity with injected activity and weight (SUV = (TAC (kBq/cc)/inj. activity (kBq)) × weight (g)).

[5] = mice n = 3, i.v., 60 min dynamic PET

For `CN1CCN(c2ccc(C=Cc3sc4ccccc4[n+]3C)cc2)CC1` [RB2, 3-Methyl-2-(4-(4-methylpiperazin-1-yl)styryl)benzo[d]thiazol-3-ium Iodide, reference compound], the Ki ([1]; Ki-RB2, αSYN [^3H]PiB competition) is given as 333 µM, the Ki ([1]; methylated compounds, Table 2, two values in a cell = single determinations, read-out: Ki) is given as greater than 0.4 µM and the Kd [2] is given as 4.4 ± 0.5 µM.

In the case of `[18F]c1ccc2nc(/C=C/c3ccc(N4CCOCC4)cc3)sc2c1` [[^18F]MFSB], the “AD/frontal cortex SB ratio” value [3] is reported as “remained favorable”, the “SUV, TAC peak value, blood” value [4, 5] is reported as 6.94 ± 0.71 and the “SUV, TAC peak value, brain” value [4, 5] is reported as 1.79 ± 0.02. The “SUV, TAC peak value, kidney” value [4, 5] was 2.70 ± 0.27, the “SUV, TAC peak value, liver” value [4, 5] was 5.00 ± 0.35 and the “SUV, TAC peak value, lung” value [4, 5] was 4.43 ± 0.33. The “SUV, TAC peak value, bone” value ([4]; mice n = 3, i.v., at 60 min) was 1.52 ± 0.20, the “SUV peak in the cerebellum” value ([4]; mice, PET) was “up to 1.76” and the “SUV peak in the frontal cortex” value ([4]; mice, PET) was “up to 1.58”. The SUVbrain/SUVblood ([4]; mice, PET) was 2.7, the “Time to peak, bone” value ([4]; mice, PET TAC) was 60 min and the “Time to peak, brain” value ([4]; mice, PET TAC) was 25 min. For the same compound, the “Time to peak, kidney” value ([4]; mice, PET TAC) was 110 s, the “Time to peak, liver” value ([4]; mice, PET TAC) was 90 s and the “Time to peak, lung” value ([4]; mice, PET TAC) was 15 s. For the same compound, the “AUC, brain” value ([4]; mice, PET TAC over 60 min) was 98.13 ± 1.30, the “AUC, kidney” value ([4]; mice, PET TAC over 60 min) was 102.27 ± 1.33 and the “AUC, liver” value ([4]; mice, PET TAC over 60 min) was 188.40 ± 6.15. For the same compound, the “AUC, lung” value ([4]; mice, PET TAC over 60 min) was 51.22 ± 3.94.

With `[18F]c1ccc2nc(/C=C/c3ccc(N4CCCCC4)cc3)sc2c1` [[^18F]PFSB] the “AD/frontal cortex SB ratio” value [3] was 1.06 and the “specific binding signal intensity ratio MSA / control of the same brain area” value ([3]; MSA patient slices vs control, n = 1) was 3.7 and 4.2.
